In US8796272B2, “Glycine transporter-inhibiting substances” (Taisho Pharmaceutical Co., Ltd, priority 2011, dated 2014):

What follows are compounds tested against T1, human type 1 glycine transporter (GlyT1) (Homo sapiens, UniProt P48067) (assay: Glycine uptake inhibition experiment ([3H] glycine uptake)). Settings: T98G cells (glioma cells) expressing human GlyT1; [3H] glycine 250 nM; 10-min pretreatment, 15 minutes at room temperature; read-out: glycine uptake inhibitory activity (IC50 value).
T1 construct: T98G cells (glioma cells) expressing human type 1 glycine transporter (GlyT1) were used; endogenous in cells; host or cells: T98G cells (human glioma)
T1 sequence (P48067 1-706): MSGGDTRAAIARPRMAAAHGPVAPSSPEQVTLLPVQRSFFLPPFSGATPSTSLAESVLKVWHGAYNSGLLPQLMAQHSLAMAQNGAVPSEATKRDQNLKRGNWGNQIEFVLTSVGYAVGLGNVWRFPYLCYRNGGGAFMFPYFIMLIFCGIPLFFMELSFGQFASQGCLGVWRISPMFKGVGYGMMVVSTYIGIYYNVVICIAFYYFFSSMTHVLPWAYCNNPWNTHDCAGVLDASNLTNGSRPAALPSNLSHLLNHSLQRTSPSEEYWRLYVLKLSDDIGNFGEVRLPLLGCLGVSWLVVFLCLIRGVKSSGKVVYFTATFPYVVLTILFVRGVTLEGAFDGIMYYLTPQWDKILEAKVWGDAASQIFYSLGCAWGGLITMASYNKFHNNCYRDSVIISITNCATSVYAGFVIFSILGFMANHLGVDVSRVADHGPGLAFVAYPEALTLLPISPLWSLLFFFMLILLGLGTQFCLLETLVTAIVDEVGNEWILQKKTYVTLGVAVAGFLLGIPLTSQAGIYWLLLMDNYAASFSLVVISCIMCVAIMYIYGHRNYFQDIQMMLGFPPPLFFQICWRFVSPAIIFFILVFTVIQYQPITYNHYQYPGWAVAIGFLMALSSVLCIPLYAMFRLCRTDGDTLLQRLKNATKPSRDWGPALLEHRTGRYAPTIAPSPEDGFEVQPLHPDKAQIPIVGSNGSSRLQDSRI
Format: cell-based
Experimental: A glycine uptake experiment was conducted in accordance with the method published in Neuron, 8, 927-935, 1992. In the experiment, T98G cells (glioma cells) expressing human type 1 glycine transporter (GlyT1) were used. The T98G cells were seeded in a 96-well plate at 2.0×10^4 cells/well and cultured overnight in a CO2 incubator. The test substance was dissolved in a 100% DMSO solution and then dissolved in a 10 mM HEPES buffer solution (pH 7.4) containing 150 mM sodium chloride, 1 mM calcium chloride, 5 mM potassium chloride, 1 mM magnesium chloride, 10 mM glucose and 0.2% bovine serum albumin. After removing the cell culture medium, the test substance was subjected to a 10-min pretreatment. Subsequently, the test substance and [^3H] glycine (final concentration: 250 nM) were added to the cells and reaction was performed at room temperature for 15 minutes. After the end of the reaction, the extracellular fluid was aspirated with a manifold to remove excess labeled glycine present outside the cells, and then the cells were lysed with a 0.5 M aqueous sodium hydroxide solution. The glycine content in the cells was determined by measuring the radioactivity in the cell lysate with a liquid scintillation counter. Glycine uptake in the presence of 10 μM ALX^5407 was defined as non-specific uptake, and the value calculated by subtracting the amount of the non-specific uptake from the total uptake in the absence of 10 μM ALX5407 was defined as specific uptake. In addition, glycine uptake inhibitory activity (IC50 value) was calculated from an inhibition curve at the concentrations of each test substance ranging from 10^−9 to 10^−5 M.
It should be noted that ALX^5407 is an HCl salt of N-[(3R)-3-([1,1′-biphenyl]-4-yloxy)-3-(4-fluorophenyl)propyl]-N-methylglycine.

Row | SMILES | IC50 [µM]
1 | COc1cnc(N2C[C@H](C(C)C)N(CC(=O)Nc3cc(C(F)(F)F)ccn3)C2=O)nc1 [Compound 93] | 0.054
2 | CC(C)[C@H]1CN(c2ccc(F)cn2)C(=O)N1CC(=O)Nc1cccc(C(F)(F)F)c1 [Compound 11] | 0.089
3 | CCOc1cnc(N2C[C@H]([C@@H](F)CC)N(CC(=O)Nc3cc(C(F)(F)F)ccn3)C2=O)nc1 [Compound 220] | 0.017
4 | CC(C)[C@H]1CN(c2ncc(Cl)cn2)C(=O)N1CC(=O)Nc1cc(C(F)(F)F)ccn1 [Compound 62] | 0.033
5 | CCOc1cnc(N2C[C@H]([C@@H](C)CC)N(CC(=O)Nc3cc(C4CC4)ccn3)C2=O)nc1 [Compound 250] | 0.024
6 | CC(C)(C)[C@H]1CN(c2ccc(C(F)(F)F)nc2)C(=O)N1CC(=O)Nc1cccc(C(F)(F)F)c1 [Compound 13] | 0.074
7 | CC(C)[C@H]1CN(c2ncc(C3CC3)cn2)C(=O)N1CC(=O)Nc1cc(C(F)(F)F)ccn1 [Compound 193] | 0.022
8 | O=C(CN1C(=O)N(c2ccc(C(F)(F)F)nc2)C[C@@H]1CC1CCCCC1)Nc1cccc(C(F)(F)F)c1 [Compound 8] | 0.66
9 | CCc1ccnc(NC(=O)CN2C(=O)N(c3cnc(C(F)(F)F)nc3)C[C@@H]2C(C)C)c1 [Compound 165] | 0.15
10 | O=C(CN1C(=O)N(c2ncc(C(F)(F)F)cc2F)C[C@@H]1CC1CC1)Nc1cc(Cl)ccn1 [Compound 152] | 0.043
11 | CCc1cnc(N2C[C@H](C(C)C)N(CC(=O)Nc3ccc(C(F)(F)F)nc3)C2=O)nc1 [Compound 104] | 0.24
12 | CCOc1ccc(N2C[C@H](C(C)C)N(CC(=O)Nc3cc(Cl)ccn3)C2=O)nc1 [Compound 186] | 0.045
13 | CC[C@H](C)[C@H]1CN(c2ncc(C3CC3)cn2)C(=O)N1CC(=O)Nc1cc(Cl)ccn1 [Compound 249] | 0.018

The next lines start with the values.

Row | IC50 [µM] | SMILES
14 | 0.075 | COC(C)(C)[C@H]1CN(c2ccc(C(F)(F)F)nc2)C(=O)N1CC(=O)Nc1cc(C(F)(F)F)ccn1 [Compound 148]
15 | 0.8 | CC(C)[C@H]1CN(c2ccc(C(F)(F)F)nc2)C(=O)N1CC(=O)Nc1nnc(C(F)(F)F)s1 [Compound 54]
16 | 0.6 | CC(C)[C@H]1CN(c2ncc(F)cn2)C(=O)N1CC(=O)Nc1cc(Cl)ccn1 [Compound 188]
17 | 0.071 | O=C(CN1C(=O)N(c2ccc(C(F)(F)F)nc2)C[C@@H]1c1ccccc1)Nc1cccc(C(F)(F)F)c1 [Compound 12]
18 | 0.053 | CC(C)[C@H]1CN(c2ccc(C(F)(F)F)nc2)C(=O)N1CC(=O)Nc1cncc(Cl)c1 [Compound 61]
19 | 0.23 | CC(C)[C@H]1CN(c2ccc(C(F)(F)F)nc2)C(=O)N1CC(=O)Nc1cc(C(C)(C)C)no1 [Compound 103]
20 | 0.016 | CCOc1cnc(N2C[C@H]([C@@H](C)CC)N(CC(=O)Nc3cc(Cl)ccn3)C2=O)nc1 [Compound 248]
